{"source": "patent US8178570B2", "about": "“Tie-2 modulators and methods of use” (Exelixis, Inc., priority 2003, dated 2012)", "note": "pIC50: −log10 of the molar value.", "data": [{"molecular_target": "Tie-2 (Homo sapiens, UniProt Q02763)", "sequence (Q02763 23-1124)": "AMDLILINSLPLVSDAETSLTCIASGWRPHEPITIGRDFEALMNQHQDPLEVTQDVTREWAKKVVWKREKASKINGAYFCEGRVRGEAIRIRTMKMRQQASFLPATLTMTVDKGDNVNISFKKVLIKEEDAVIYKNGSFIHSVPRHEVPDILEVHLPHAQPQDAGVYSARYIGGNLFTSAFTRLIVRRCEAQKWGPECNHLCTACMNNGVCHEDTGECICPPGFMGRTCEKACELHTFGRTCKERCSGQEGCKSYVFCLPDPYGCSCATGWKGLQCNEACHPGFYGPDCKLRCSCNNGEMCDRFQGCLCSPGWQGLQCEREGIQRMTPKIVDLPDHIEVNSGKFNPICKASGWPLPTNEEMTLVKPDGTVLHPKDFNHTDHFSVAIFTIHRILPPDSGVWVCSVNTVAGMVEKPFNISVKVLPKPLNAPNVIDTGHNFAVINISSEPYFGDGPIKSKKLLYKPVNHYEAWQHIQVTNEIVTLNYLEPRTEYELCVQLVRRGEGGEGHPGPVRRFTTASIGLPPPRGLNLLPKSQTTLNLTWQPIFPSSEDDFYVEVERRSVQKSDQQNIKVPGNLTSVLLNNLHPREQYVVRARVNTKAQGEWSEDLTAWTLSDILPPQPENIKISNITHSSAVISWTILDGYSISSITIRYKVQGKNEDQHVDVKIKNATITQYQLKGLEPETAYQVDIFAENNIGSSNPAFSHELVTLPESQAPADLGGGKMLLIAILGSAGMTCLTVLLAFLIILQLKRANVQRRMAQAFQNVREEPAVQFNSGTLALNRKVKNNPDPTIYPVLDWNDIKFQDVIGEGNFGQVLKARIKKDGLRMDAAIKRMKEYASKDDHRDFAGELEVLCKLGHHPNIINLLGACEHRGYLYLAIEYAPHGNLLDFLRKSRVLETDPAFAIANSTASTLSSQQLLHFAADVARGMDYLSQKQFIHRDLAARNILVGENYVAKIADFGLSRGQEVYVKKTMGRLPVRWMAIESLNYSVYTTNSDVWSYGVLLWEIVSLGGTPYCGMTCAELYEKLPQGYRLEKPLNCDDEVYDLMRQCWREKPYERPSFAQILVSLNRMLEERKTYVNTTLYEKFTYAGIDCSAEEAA", "assay": "Tie-2 tyrosine kinase activity: kinase-dependent ATP consumption (pEY substrate, luciferase/luciferin chemiluminescence) or 33P-ATP incorporation into substrate", "format": "biochemical", "conditions": "Tie-2 (human enzyme) inhibition, Table 2, class symbols A-D", "description": "One measure of inhibition is Ki. […] The Ki for a compound is determined from the IC50 based on three assumptions. First, only one compound molecule binds to the enzyme and there is no cooperativity. […] Third, the enzymatic rate of the enzyme-inhibitor complex is zero. The rate (i.e., compound concentration) data are fitted to the equation:\n[formula] where V is the observed rate, Vmax, is the rate of the free enzyme, I0 is the inhibitor concentration, E0 is the enzyme concentration, and Kd is the dissociation constant of the enzyme-inhibitor complex.\nTyrosine kinase activity is determined by 1) measurement of kinase-dependent ATP consumption by in the presence of a generic substrate such as polyglutamine, tyrosine (pEY), by luciferase/luciferin-mediated chemiluminescence or; 2) incorporation of radioactive phosphate derived from ^33P-ATP into a generic substrate which has been absorbed onto the well surface of polystyrene microtiter plates. Phosphorylated substrate products are quantified by scintillation spectrometry.\nInhibition is indicated as IC50 with following key: A=IC50 less than 50 nM, B=IC50 greater than 50 nM, but less than or equal to 1000 nM, C=IC50 greater than 1000 nM, but less than 10,000 nM, and D=IC50 10,000 nM or greater. The abbreviation for human enzyme, Tie-2, is defined as tyrosine kinase with immunoglobulin and EGF repeats.", "values": [{"smiles": "CCOC(=O)Cn1nc(-c2ccncc2)nc1-c1cc(Cl)cc(Cl)c1", "note": "[Entry 15, ethyl [5-(3,5-dichlorophenyl)-3-pyridin-4-yl-1H-1,2,4-triazol-1-yl]acetate]", "pIC50": "≤ 5.00"}, {"smiles": "CCOC(=O)Cn1nc(-c2cc(Cl)cc(Cl)c2)nc1-c1ccncc1", "note": "[Entry 16, ethyl [3-(3,5-dichlorophenyl)-5-pyridin-4-yl-1H-1,2,4-triazol-1-yl]acetate]", "pIC50": "≤ 5.00"}, {"smiles": "O=C(Cc1cccc2ccccc12)N(CCn1nc(-c2ccncc2)nc1-c1ccco1)C1CCCC1", "note": "[Entry 17, N-cyclopentyl-N-[2-(5-furan-2-yl-3-pyridin-4-yl-1H-1,2,4-triazol-1-yl)ethyl]-2-naphthalen-1-ylacetamide]", "pIC50": "> 7.30"}, {"smiles": "O=C(Cc1cccc2ccccc12)N(CCn1nc(-c2ccco2)nc1-c1ccncc1)C1CCCC1", "note": "[Entry 18, N-cyclopentyl-N-[2-(3-furan-2-yl-5-pyridin-4-yl-1H-1,2,4-triazol-1-yl)ethyl]-2-naphthalen-1-ylacetamide]", "pIC50": "6.00 to 7.30"}, {"smiles": "O=C(Cc1cccc2ccccc12)N(CCn1nc(-c2cccs2)nc1-c1ccncc1)C1CCCC1", "note": "[Entry 19, N-cyclopentyl-2-naphthalen-1-yl-N-{2-[5-pyridin-4-yl-3-(2-thienyl)-1H-1,2,4-triazol-1-yl]ethyl}acetamide]", "pIC50": "6.00 to 7.30"}, {"smiles": "COc1ccc(-c2nc(-c3ccncc3)nn2CCN(C(=O)c2cccc3ccccc23)C2CCCC2)cc1Cl", "note": "[Entry 20, N-(2-{5-[3-chloro-4-(methyloxy)phenyl]-3-pyridin-4-yl-1H-1,2,4-triazol-1-yl}ethyl)-N-cyclopentylnaphthalene-1-carboxamide]", "pIC50": "5.00 to 6.00"}, {"smiles": "COc1ccc(-c2nc(-c3ccncc3)nn2CCN(C(=O)c2ccc3ccccc3c2)C2CCCC2)cc1Cl", "note": "[Entry 21, N-(2-{5-[3-chloro-4-(methyloxy)phenyl]-3-pyridin-4-yl-1H-1,2,4-triazol-1-yl}ethyl)-N-cyclopentylnaphthalene-2-carboxamide]", "pIC50": "≤ 5.00"}, {"smiles": "COc1cccc(-c2nc(-c3ccncc3)nn2CCN(C(=O)Cc2cccc3ccccc23)C2CCCC2)c1", "note": "[Entry 22, N-cyclopentyl-N-(2-{5-[3-(methyloxy)phenyl]-3-pyridin-4-yl-1H-1,2,4-triazol-1-yl}ethyl)-2-naphthalen-1-ylacetamide]", "pIC50": "> 7.30"}, {"smiles": "COc1cccc(-c2nc(-c3ccncc3)n(CCN(C(=O)Cc3cccc4ccccc34)C3CCCC3)n2)c1", "note": "[Entry 23, N-cyclopentyl-N-(2-{3-[3-(methyloxy)phenyl]-5-pyridin-4-yl-1H-1,2,4-triazol-1-yl}ethyl)-2-naphthalen-1-ylacetamide]", "pIC50": "6.00 to 7.30"}, {"smiles": "COc1ccc(-c2nc(-c3ccncc3)nn2CCCCN(C(=O)Cc2cccc3ccccc23)C2CCCC2)cc1Cl", "note": "[Entry 24, N-(4-{5-[3-chloro-4-(methyloxy)phenyl]-3-pyridin-4-yl-1H-1,2,4-triazol-1-yl}butyl)-N-cyclopentyl-2-naphthalen-1-ylacetamide]", "pIC50": "5.00 to 6.00"}, {"smiles": "COc1ccc(-c2nc(-c3ccncc3)n(CCCCN(C(=O)Cc3cccc4ccccc34)C3CCCC3)n2)cc1Cl", "note": "[Entry 25, N-(4-{3-[3-chloro-4-(methyloxy)phenyl]-5-pyridin-4-yl-1H-1,2,4-triazol-1-yl}butyl)-N-cyclopentyl-2-naphthalen-1-ylacetamide]", "pIC50": "≤ 5.00"}, {"smiles": "COc1ccc(-c2nc(-c3ccncc3)nn2CCN(C(=O)c2ccccc2)C2CCCC2)cc1Cl", "note": "[Entry 26, N-(2-{5-[3-chloro-4-(methyloxy)phenyl]-3-pyridin-4-yl-1H-1,2,4-triazol-1-yl}ethyl)-N-cyclopentylbenzamide]", "pIC50": "≤ 5.00"}, {"smiles": "COc1ccc(-c2nc(-c3ccncc3)n(CCN(C(=O)c3ccccc3)C3CCCC3)n2)cc1Cl", "note": "[Entry 27, N-(2-{3-[3-chloro-4-(methyloxy)phenyl]-5-pyridin-4-yl-1H-1,2,4-triazol-1-yl}ethyl)-N-cyclopentylbenzamide]", "pIC50": "≤ 5.00"}, {"smiles": "COc1ccc(-c2nc(-c3ccncc3)nn2CCN(C(=O)c2ccnc3ccccc23)C2CCCC2)cc1Cl", "note": "[Entry 28, N-(2-{5-[3-chloro-4-(methyloxy)phenyl]-3-pyridin-4-yl-1H-1,2,4-triazol-1-yl}ethyl)-N-cyclopentylquinoline-4-carboxamide]", "pIC50": "≤ 5.00"}, {"smiles": "COc1ccc(-c2nc(-c3ccncc3)nn2CCN(C(=O)Nc2cccc3ccccc23)C2CCCC2)cc1Cl", "note": "[Entry 29, N-(2-{5-[3-chloro-4-(methyloxy)phenyl]-3-pyridin-4-yl-1H-1,2,4-triazol-1-yl}ethyl)-N-cyclopentyl-N′-naphthalen-1-ylurea]", "pIC50": "> 7.30"}, {"smiles": "COc1ccc(-c2nc(-c3ccncc3)nn2CCN(C(=O)Nc2ccccc2)C2CCCC2)cc1Cl", "note": "[Entry 30, N-(2-{5-[3-chloro-4-(methyloxy)phenyl]-3-pyridin-4-yl-1H-1,2,4-triazol-1-yl}ethyl)-N-cyclopentyl-N′-phenylurea]", "pIC50": "≤ 5.00"}, {"smiles": "COc1ccc(-c2nc(-c3ccncc3)nn2CCN(C(=O)Cc2ccccc2)C2CCCC2)cc1Cl", "note": "[Entry 31, N-(2-{5-[3-chloro-4-(methyloxy)phenyl]-3-pyridin-4-yl-1H-1,2,4-triazol-1-yl}ethyl)-N-cyclopentyl-2-phenylacetamide]", "pIC50": "5.00 to 6.00"}, {"smiles": "COc1ccc(-c2nc(-c3ccccc3)nn2CCN(C(=O)Cc2cccc3ccccc23)C2CCCC2)cc1Cl", "note": "[Entry 32, N-(2-{5-[3-chloro-4-(methyloxy)phenyl]-3-phenyl-1H-1,2,4-triazol-1-yl}ethyl)-N-cyclopentyl-2-naphthalen-1-ylacetamide]", "pIC50": "≤ 5.00"}, {"smiles": "COc1ccc(-c2nc(-c3ccccc3)nn2CC(=O)NC2CCCC2)cc1Cl", "note": "[Entry 33, 2-{5-[3-chloro-4-(methyloxy)phenyl]-3-phenyl-1H-1,2,4-triazol-1-yl}-N-cyclopentylacetamide]", "pIC50": "≤ 5.00"}, {"smiles": "COc1ccc(-c2nc(-c3ccncc3)nn2CCNC(=O)Cc2cccc3ccccc23)cc1Cl", "note": "[Entry 34, N-(2-{5-[3-chloro-4-(methyloxy)phenyl]-3-pyridin-4-yl-1H-1,2,4-triazol-1-yl}ethyl)-2-naphthalen-1-ylacetamide]", "pIC50": "5.00 to 6.00"}, {"smiles": "COc1ccc(-c2nc(-c3ccncc3)n(CCN(C(=O)Cc3cccc4ccccc34)C(C)C)n2)cc1Cl", "note": "[Entry 35, N-(2-{3-[3-chloro-4-(methyloxy)phenyl]-5-pyridin-4-yl-1H-1,2,4-triazol-1-yl}ethyl)-N-(1-methylethyl)-2-naphthalen-1-ylacetamide]", "pIC50": "≤ 5.00"}, {"smiles": "COc1ccc(-c2nc(-c3ccncc3)nn2CCN(C(=O)Cc2cccc3ccccc23)C2CCCCC2)cc1Cl", "note": "[Entry 36, N-(2-{5-[3-chloro-4-(methyloxy)phenyl]-3-pyridin-4-yl-1H-1,2,4-triazol-1-yl}ethyl)-N-cyclohexyl-2-naphthalen-1-ylacetamide]", "pIC50": "> 7.30"}, {"smiles": "COc1ccc(-c2nc(-c3ccncc3)n(CCN(C(=O)Cc3cccc4ccccc34)C3CCCCC3)n2)cc1Cl", "note": "[Entry 37, N-(2-{3-[3-chloro-4-(methyloxy)phenyl]-5-pyridin-4-yl-1H-1,2,4-triazol-1-yl}ethyl)-N-cyclohexyl-2-naphthalen-1-ylacetamide]", "pIC50": "6.00 to 7.30"}, {"smiles": "COc1ccc(-c2nc(-c3ccncc3)n(CCN(C(=O)Cc3cccc4ccccc34)C3CC3)n2)cc1Cl", "note": "[Entry 38, N-(2-{3-[3-chloro-4-(methyloxy)phenyl]-5-pyridin-4-yl-1H-1,2,4-triazol-1-yl}ethyl)-N-cyclopropyl-2-naphthalen-1-ylacetamide]", "pIC50": "6.00 to 7.30"}, {"smiles": "COc1ccc(-c2nc(-c3ccncc3)nn2CCN(C(=O)Cc2cccc3ccccc23)C2CCCC2)cc1", "note": "[Entry 39, N-cyclopentyl-N-(2-{5-[4-(methyloxy)phenyl]-3-pyridin-4-yl-1H-1,2,4-triazol-1-yl}ethyl)-2-naphthalen-1-ylacetamide]", "pIC50": "> 7.30"}, {"smiles": "COc1ccc(-c2nc(-c3ccncc3)n(CCN(C(=O)Cc3cccc4ccccc34)C3CCCC3)n2)cc1", "note": "[Entry 40, N-cyclopentyl-N-(2-{3-[4-(methyloxy)phenyl]-5-pyridin-4-yl-1H-1,2,4-triazol-1-yl}ethyl)-2-naphthalen-1-ylacetamide]", "pIC50": "5.00 to 6.00"}, {"smiles": "COc1ccc(-c2nc(-c3ccncc3)nn2CCN(C(=O)Cc2cccc3ccccc23)C2CCCC2)cc1OC", "note": "[Entry 41, N-(2-{5-[3,4-bis(methyloxy)phenyl]-3-pyridin-4-yl-1H-1,2,4-triazol-1-yl}ethyl)-N-cyclopentyl-2-naphthalen-1-ylacetamide]", "pIC50": "> 7.30"}, {"smiles": "COc1ccc(-c2nc(-c3ccncc3)n(CCN(C(=O)Cc3cccc4ccccc34)C3CCCC3)n2)cc1OC", "note": "[Entry 42, N-(2-{3-[3,4-bis(methyloxy)phenyl]-5-pyridin-4-yl-1H-1,2,4-triazol-1-yl}ethyl)-N-cyclopentyl-2-naphthalen-1-ylacetamide]", "pIC50": "6.00 to 7.30"}, {"smiles": "Cc1nc(-c2ccncc2)nn1CCN(C(=O)Cc1cccc2ccccc12)C1CCCC1", "note": "[Entry 43, N-cyclopentyl-N-[2-(5-methyl-3-pyridin-4-yl-1H-1,2,4,-triazol-1-yl)ethyl]-2-naphthalen-1-ylacetamide]", "pIC50": "> 7.30"}, {"smiles": "O=C(Cc1cccc2ccccc12)N(CCn1cnc(-c2ccncc2)n1)C1CCCC1", "note": "[Entry 44, N-cyclopentyl-2-naphthalen-1-yl-N-[2-(3-pyridin-4-yl-1H-1,2,4-triazol-1-yl)ethyl]acetamide]", "pIC50": "> 7.30"}, {"smiles": "O=C(Cc1cccc2ccccc12)N(CCn1nc(-c2ccncc2)nc1-c1cccc(C(F)(F)F)c1)C1CCCC1", "note": "[Entry 45, N-cyclopentyl-2-naphthalen-1-yl-N-(2-{3-pyridin-4-yl-5-[3-(trifluoromethyl)phenyl]-1H-1,2,4-triazol-1-yl}ethyl)acetamide]", "pIC50": "> 7.30"}]}]}
